Source: US10087466B2 (priority 2016, dated 2018)
Marks after values point to notes of the source that are not given here.

Tests used:
Type in all cases: in vivo
[1] = test system: pig antioxidative function; test: Serum antioxidative function measurement (T-AOC, GPx, SOD, MDA) with kits; conditions: diet + 0.3 mg/kg Na2SeO3 or 0.14 mg/kg nanostructure, mean±SD
Serum IgG and IgM = Serum IgG and IgM by turbidimetric inhibition immuno assay; conditions: pig serum; diet + 0.3 mg/kg Na2SeO3 or 0.14 mg/kg nanostructure; mean±SD
[2] = test system: Serum inflammatory cytokine TNF-α, IL-2 and IL-6; test: Serum inflammatory cytokines (TNF-α, IL-2, IL-6) by ELISA; conditions: pig serum; diet + 0.3 mg/kg Na2SeO3 or 0.14 mg/kg nanostructure; mean±SD
weaned pigs = test: Pig growth measurement (body weight, feed intake, feed/gain) in weaned pigs; conditions: mean±SD
[3] = day 28 to 67, diet + 0.3 mg/kg Na2SeO3 or 0.14 mg/kg nanostructure

O=[Se](O)O [sodium selenite]
GPx [1]: 238.56 ± 13.07^a U/mL
MDA [1]: 3.31 ± 0.10^a nmol/mL
SOD [1]: 147.94 ± 5.89^a U/mL
T-AOC [1]: 2.51 ± 0.16^a U/mL
IgG (Serum IgG and IgM): 2.66 ± 0.23^ab g/L
IgM (Serum IgG and IgM): 0.71 ± 0.07^a g/L
IL-2 [2]: 108.19 ± 10.26^ab ng/L
IL-6 [2]: 571.10 ± 38.62^ab ng/L
TNF-α [2]: 41.86 ± 4.50^ab ng/L
Final weight (weaned pigs; 67-day-old, basic diet + 0.3 mg/kg Na2SeO3 (group 1) or 0.14 mg/kg biogenic elemental selenium nanostructure (group 2)): 24.17 ± 0.76^a kg
Average daily feed intake (weaned pigs; [3]): 654.17 ± 37.64 g
Average daily gain (weaned pigs; [3]): 411.54 ± 20.63^a g
Feed/gain ratio (weaned pigs; [3]): 1.59 ± 0.01^b
